Reference: patent US20200016118A1, “HDAC INHIBITOR IN COMBINATION WITH VEGF/VEGFR INTERACTION FOR CANCER THERAPY BASED ON PLATELET COUNT” (4SC AG, priority 2017, published 2020)

Tested on: advanced HCC
Assay: Phase I/II trial (Phase II part) of resminostat in combination with sorafenib versus sorafenib alone, first-line, overall survival by baseline platelet count
Assay type: in vivo, human
Procedure: A Phase I/II trial investigating resminostat in the indication of hepatocellular cancer (HCC) was conducted. The study was an open-label, multi-center Phase I/II study in patients with advanced HCC previously untreated with systemic chemotherapy (first-line therapy) to determine the MTD and to evaluate safety and efficacy of resminostat in combination with sorafenib. The study was conducted in Japan and Korea. The main eligibility criteria included a performance status of ECOG 0-1, adequate hepatic, renal, cardiac and bone marrow function and a life expectancy of more than 12 weeks.
In the Phase II part, a total of 170 patients were enrolled. Patients were randomly allocated to either the combination group (86 patients) or the monotherapy group (84 patients) at the RD determined from phase I. Randomization was performed with the minimization method using the following 2 factors as stratification factors: study site; and vascular invasion (presence or absence). The trial is registered at www.clinicaltrials.jp (Identifier: JapicCTI-132124) and www.clinicalTrials.gov (NCT02400788). Overall Survival (OS) were evaluated by the Kaplan-Meier method. A point estimate of the hazard ratio was calculated for each subgroup categorized by baseline platelet level as well as the 95% confidence interval of the estimate.
Treatment regimen: Mono group: A cycle was defined as 14 days. Sorafenib (800 mg) was given daily. Combination group: A cycle was defined as 14 days. Sorafenib (800 mg) was given daily. Resminostat (400 mg) was given daily on Days 1 to 5 and suspended on Days 6 to 14.
Blood was collected into a blood collection tubes precharged with EDTA-2K and then immediately inverted 4-5 times to mix. The mixed sample was stored refrigerated for further analysis.
Platelet count analysis was conducted with the Sheath Flow DC Detection method (Sysmex, Kobe, Japan). A method is described in detail in WALTERS J., GARRITY P. (2000): Performance Evaluation of the Sysmex XE-2100 Hematology Analyzer; Laboratory Hematology 6: 83-92. […]

CNC(=O)c1cc(Oc2ccc(NC(=O)Nc3ccc(Cl)c(C(F)(F)F)c3)cc2)ccn1 [sorafenib, 4-[4-[[4-chloro-3-(trifluoromethyl)phenyl]carbamoylamino]phenoxy]-N-methyl-pyridine-2-carboxamide]
overall survival (OS), in words (patients with platelet count of about 150000 platelets/μL or above compared to below about 150000 (FIG. 1)): shorter overall survival | median overall survival (mOS) (patients with platelet count ≥151×10^3/μL (median) at baseline): 5.1 months | median overall survival (mOS) (patients with platelet level below median (<151×10^3/μL)): 17.5 months
